Experimental data: US4871758A, “Pharmacologically active cholinergic compositions, and methods for making same and use thereof in treating disease” (priority 1987, dated 1989)
Where a name gives a salt, the structure may show the parent alone.

What was measured:
[1] = tested on: M1 receptors on the intramural inhibitory neurons; experiment: lower esophageal sphincter pressure assay in anaesthetized opossum; type: in vivo
Protocol: The compound (I) obtained according to Example 2 was tested by assay on the lower esophageal sphincter of an opossum anaesthetized with sodium phenobarbitol. In carrying out the assay, the lower esophageal sphincter located between the esophagus and the stomach remains in a state of tonic contraction; therefore, a pressure sensing (manometric) catheter introduced from the animal's mouth into the lumen monitors lower esophageal sphincter pressures by registering a sustained high pressure zone, due to the lumen's myogenic contraction which is independent of neural or hormonal influences. Neural activity and hormones can increase or decrease the sphincter pressure and both excitatory and inhibitory influences can be readily detected.
The intraluminal pressures from the lower esophageal sphincter, esophageal body and the stomach are continuously monitored using a low compliance, waterfilled and continuously perfused catheter anchored in the lower esophageal sphincter so that artifacts due to axial motion can be minimized. See Goyal et al., Gastroenterology, 71, 62-7 (1976). All animals receive bilateral cervical vagotomy to eliminate vagally mediated changes in the sphincter pressure. Nerves to the sphincter are stimulated electrically by electrodes which are either applied to the distal end of the cut vagus nerve or applied intramurally in the sphincter. See Goyal et al., supra, and Rattan et al., Am. J. Physiol., 234, E272-E276 (1978). Reflex relaxation of the sphincter is produced by distension of the esophagus with an intraluminal balloon. Drugs are administered in the arterial supply of the lower esophageal sphincter. This is done by opening the abdominal cavity and cannulating the artery that leads to the lower esophageal sphincter. The compound is injected into the blood supply of the lower esophageal sphincter and its effect therein is determined. The animal's vital signs are monitored and blood pressure is maintained with intravenous infusion of saline. Some drugs are administered intravenously.
In summary, the above-described model permits identification of muscarinic agonists and antagonists in a physiological system.

[2] = tested on: guinea-pig trachea muscle; experiment: guinea-pig trachea contraction; settings: muscles have essentially M2 receptors
[3] = lower esophageal sphincter, anaesthetized opossum

M1 receptor selectivity ([1]; M1 versus M2, from sphincter and trachea results): highly selective for M1 receptors | blockade of activity by antagonist ([1]; atropine): blocked by atropine | agonist type ([1]; inferred from 80% of full agonist activity): partial agonist | muscarinic receptor subtype effects ([1]; lower esophageal sphincter, anaesthetized opossum, injected into arterial supply of the sphincter): only M1 effects
SMILES: Cc1ccc(-c2cncn2C)o1 [Compound I, 1-(N-methyl)-5-(5'-methyl-2'-furyl)imidazole, Hydrochloride]
dosage giving peak effect [1, 3]: 10^-6 mole/kg | threshold dosage [1, 3]: 10^-8 mole/kg | potency in contracting the trachea muscle [2]: virtually no potency
